Activity calls are given as the source filed them. No cut-off for these calls is given here.
What was measured:
[1] = system: Jurkat; experiment: Cytotoxicity against human Jurkat cells assessed as reduction in cell viability at 50 and 100 uM after 24 hrs by MTT assay; type: functional, cell-based
[2] = Inhibition of Leishmania mexicana rCPB3.0 H84Y mutant using Z-FR-AMC as substrate by spectrofluorometric analysis
[3] = molecular target: T1, Cysteine proteinase B (Leishmania mexicana, UniProt P36400); experiment: Inhibition of Leishmania mexicana rCPB2.8 using Z-FR-AMC as substrate by spectrofluorometric analysis
T1 sequence (P36400 whole entry): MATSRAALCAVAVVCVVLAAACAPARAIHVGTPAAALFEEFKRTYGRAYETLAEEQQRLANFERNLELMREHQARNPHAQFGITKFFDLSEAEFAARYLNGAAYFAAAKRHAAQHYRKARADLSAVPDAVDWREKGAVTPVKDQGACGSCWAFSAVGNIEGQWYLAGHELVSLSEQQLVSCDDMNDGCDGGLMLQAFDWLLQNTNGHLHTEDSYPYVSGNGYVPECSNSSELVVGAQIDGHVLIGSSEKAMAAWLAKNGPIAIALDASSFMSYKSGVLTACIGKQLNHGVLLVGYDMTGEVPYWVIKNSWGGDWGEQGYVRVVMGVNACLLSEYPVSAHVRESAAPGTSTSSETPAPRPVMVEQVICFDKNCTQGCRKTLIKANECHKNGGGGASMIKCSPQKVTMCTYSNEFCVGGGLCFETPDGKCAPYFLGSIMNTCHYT

[4] = system: Jurkat; experiment: Cytotoxicity against human Jurkat cells assessed as reduction in cell viability after 24 hrs by MTT assay; type: functional, cell-based
[5] = system: SK-MEL-147; experiment: Cytotoxicity against human SK-MEL-147 cells assessed as reduction in cell viability at 50 and 100 uM after 24 hrs by MTT assay; type: functional, cell-based
[6] = system: SK-MEL-147; experiment: Cytotoxicity against human SK-MEL-147 cells assessed as reduction in cell viability after 24 hrs by MTT assay; type: functional, cell-based; conditions: SK-MEL-147, 24 h
[7] = Inhibition of Leishmania mexicana rCPB3.0 using Z-FR-AMC as substrate by spectrofluorometric analysis
[8] = system: SK-MEL-147; experiment: Induction of apoptosis in human SK-MEL-147 cells assessed as increase in reactive oxygen species generation by CM-H2DCFDA staining based flow cytometric analysis; type: functional, cell-based
[9] = molecular target: Cathepsin B (Homo sapiens, UniProt P07858); experiment: Inhibition of cathepsin B (unknown origin) using Z-FR-AMC as substrate by spectrofluorometric analysis
[10] = system: SK-MEL-147; experiment: Cytotoxicity against human SK-MEL-147 cells assessed as reduction in cell viability at EC50 concentration preincubated for 1 hr in presence of GSH measured after 24 hrs by MTT assay; type: functional, cell-based
[11] = system: SK-MEL-147; experiment: Induction of apoptosis in human SK-MEL-147 cells assessed as late apoptotic cells at 20 uM after 24 hrs by Annexin V-FITC/propidium iodide staining based flow cytometry; type: functional, cell-based
[12] = system: SK-MEL-147; experiment: Cytotoxicity against human SK-MEL-147 cells assessed as reduction in cell viability at EC50 concentration preincubated for 1 hr in presence of N-acetyl cysteine measured after 24 hrs by MTT assay; type: functional, cell-based
[13] = organism: Rattus norvegicus; experiment: Induction of mitochondrial permeabilization in rat liver mitochondria assessed as mitochondrial transmembrane potential dissipation in presence of ADP by rhodamine-123 dye based spectrofluorometer analysis; type: functional
[14] = molecular target: Procathepsin L (Homo sapiens, UniProt P07711); experiment: Inhibition of cathepsin L (unknown origin) using Z-FR-AMC as substrate by spectrofluorometric analysis
Procathepsin L, sequence (P07711 whole entry): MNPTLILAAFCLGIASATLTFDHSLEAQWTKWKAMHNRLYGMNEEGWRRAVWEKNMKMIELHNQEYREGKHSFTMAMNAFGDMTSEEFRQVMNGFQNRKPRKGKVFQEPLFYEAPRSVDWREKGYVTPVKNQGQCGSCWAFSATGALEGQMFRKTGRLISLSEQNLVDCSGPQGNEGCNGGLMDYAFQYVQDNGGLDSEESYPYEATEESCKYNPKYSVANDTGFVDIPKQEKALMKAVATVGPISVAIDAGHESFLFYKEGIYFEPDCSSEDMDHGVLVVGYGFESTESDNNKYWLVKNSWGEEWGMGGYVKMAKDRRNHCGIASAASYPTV

[15] = system: SK-MEL-147; experiment: Induction of apoptosis in human SK-MEL-147 cells assessed as mitochondrial membrane potential dissipation after 24 hrs by TMRM staining based fluorescence microscopic method; type: functional, cell-based
[16] = system: SK-MEL; experiment: Cytotoxicity against human SK-MEL-147 cells assessed as reduction in cell viability at EC50 concentration preincubated for 1 hr in presence of BAPTA measured after 24 hrs by MTT assay; type: functional, cell-based
[17] = organism: Rattus norvegicus; experiment: Induction of mitochondrial permeabilization in rat liver mitochondria assessed as mitochondrial transmembrane potential dissipation in presence of DTT by rhodamine-123 dye based spectrofluorometer analysis; type: functional
[18] = organism: Rattus norvegicus; experiment: Induction of mitochondrial permeabilization in rat liver mitochondria assessed as calcium efflux in presence of DTT by calcium green based spectrofluorometer analysis; type: functional
[19] = organism: Rattus norvegicus; experiment: Induction of mitochondrial permeabilization in rat liver mitochondria assessed as mitochondrial transmembrane potential dissipation by rhodamine-123 dye based spectrofluorometer analysis; type: functional
[20] = organism: Rattus norvegicus; experiment: Induction of mitochondrial permeabilization in rat liver mitochondria assessed as calcium efflux in presence of CsA by calcium green based spectrofluorometer analysis; type: functional
[21] = system: SK-MEL-147; experiment: Induction of apoptosis in human SK-MEL-147 cells assessed as increase in BAX expression at 20 uM after 24 hrs by western blotting analysis; type: functional, cell-based
[22] = system: SK-MEL-147; experiment: Induction of apoptosis in human SK-MEL-147 cells assessed as necrotic cells at 20 uM after 24 hrs by Annexin V-FITC/propidium iodide staining based flow cytometry; type: functional, cell-based
[23] = organism: Rattus norvegicus; experiment: Induction of mitochondrial permeabilization in rat liver mitochondria assessed as calcium efflux by calcium green based spectrofluorometer analysis; type: functional
[24] = system: SK-MEL; experiment: Cytotoxicity against human SK-MEL-147 cells assessed as reduction in cell viability at EC50 concentration preincubated for 1 hr in presence of EGTA measured after 24 hrs by MTT assay; type: functional, cell-based
[25] = organism: Rattus norvegicus; experiment: Induction of mitochondrial permeabilization in rat liver mitochondria assessed as mitochondrial transmembrane potential dissipation in presence of CsA by rhodamine-123 dye based spectrofluorometer analysis; type: functional
[26] = system: SK-MEL-147; experiment: Cytotoxicity against human SK-MEL-147 cells assessed as reduction in cell viability at EC50 concentration preincubated for 1 hr in presence of Boc-D-FMK measured after 24 hrs by MTT assay; type: functional, cell-based
[27] = system: SK-MEL-147; experiment: Cytotoxicity against human SK-MEL-147 cells assessed as reduction in cell viability at EC50 concentration preincubated for 1 hr in presence of DTT measured after 24 hrs by MTT assay; type: functional, cell-based
[28] = system: SK-MEL-147; experiment: Induction of apoptosis in human SK-MEL-147 cells assessed as early apoptotic cells at 20 uM after 24 hrs by Annexin V-FITC/propidium iodide staining based flow cytometry; type: functional, cell-based
[29] = system: SK-MEL-147; experiment: Induction of apoptosis in human SK-MEL-147 cells assessed as effect on BCL-2 protein expression at 20 uM after 24 hrs by western blotting analysis; type: functional, cell-based
[30] = organism: Rattus norvegicus; experiment: Induction of mitochondrial permeabilization in rat liver mitochondria assessed as calcium efflux in presence of ADP by calcium green based spectrofluorometer analysis; type: functional
[31] = system: SK-MEL-147; experiment: Cytotoxicity against human SK-MEL-147 cells assessed as reduction in cell viability in presence of BCL2 inhibitor venetoclax; type: functional, cell-based
[32] = system: SK-MEL-147; experiment: Induction of apoptosis in human SK-MEL-147 cells assessed mitochondrial permeabilization after 24 hrs by mitotracker green staining based microscopic analysis; type: functional, cell-based
[33] = system: SK-MEL-147; experiment: Cytotoxicity against human SK-MEL-147 cells assessed as reduction in cell viability at EC50 concentration preincubated for 1 hr in presence of E-64 measured after 24 hrs by MTT assay; type: functional, cell-based
[34] = Inhibition of Leishmania mexicana rCPB3.0 H84Y mutant assessed as inhibition constant using Z-FR-AMC as substrate preincubated for 10 mins followed by substrate addition by Lineweaver-Burk double reciprocal plot analysis
[35] = system: Leishmania mexicana; experiment: Inhibition of Leishmania mexicana rCPB3.0 H84Y mutant assessed as inhibition constant for uncompetitive inhibition using Z-FR-AMC as substrate preincubated for 10 mins followed by substrate addition by Lineweaver-Burk double reciprocal plot analysis
[36] = system: Leishmania mexicana; experiment: Inhibition of Leishmania mexicana rCPB3.0 assessed as inhibition constant for uncompetitive inhibition using Z-FR-AMC as substrate preincubated for 10 mins followed by substrate addition by Lineweaver-Burk double reciprocal plot analysis
[37] = Inhibition of Leishmania mexicana rCPB3.0 assessed as inhibition constant using Z-FR-AMC as substrate preincubated for 10 mins followed by substrate addition by Lineweaver-Burk double reciprocal plot analysis
[38] = molecular target: T1, Cysteine proteinase B; experiment: Inhibition of Leishmania mexicana rCPB2.8 assessed as inhibition constant using Z-FR-AMC as substrate preincubated for 10 mins followed by substrate addition by Lineweaver-Burk double reciprocal plot analysis
[39] = molecular target: Cysteine proteinase B (Leishmania mexicana) (UniProt P36400); experiment: Inhibition of Leishmania mexicana rCPB2.8 assessed as inhibition constant for uncompetitive inhibition using Z-FR-AMC as substrate preincubated for 10 mins followed by substrate addition by Lineweaver-Burk double reciprocal plot analysis
Cysteine proteinase B (Leishmania mexicana), sequence (P36400 126-443 limits assumed): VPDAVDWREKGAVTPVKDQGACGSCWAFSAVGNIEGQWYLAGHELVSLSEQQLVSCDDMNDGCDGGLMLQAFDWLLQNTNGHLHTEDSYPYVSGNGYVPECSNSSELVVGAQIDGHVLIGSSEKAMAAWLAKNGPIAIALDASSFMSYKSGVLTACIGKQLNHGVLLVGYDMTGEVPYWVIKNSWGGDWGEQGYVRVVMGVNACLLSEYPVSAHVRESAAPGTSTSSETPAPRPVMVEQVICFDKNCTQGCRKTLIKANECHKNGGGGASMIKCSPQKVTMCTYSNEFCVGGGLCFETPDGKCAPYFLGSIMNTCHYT

SMILES: CCOC(=O)c1cc([Se]c2ccccc2)c2ccccc2n1
- Activity [1]: Active
- IC50 [2]: 25.3 µM
- IC50 [3]: 54 µM
- EC50 [4]: 98.2 µM
- Activity [5]: Active
- EC50 [6]: 86.3 µM
- IC50 [7]: 57.5 µM

SMILES: CCOC(=O)c1cc([Se]c2ccccc2)c2cc(Br)ccc2n1
- Activity [1]: Active
- EC50 [4]: 20.8 µM
- Activity [5]: Active
- EC50 [6]: 12.4 µM

SMILES: CCOC(=O)c1cc([Se]c2ccc3ccccc3c2)c2cc(OC)ccc2n1
- Activity [1]: Active
- EC50 [4]: 50.7 µM
- Activity [5]: Active
- EC50 [6]: 32.2 µM

SMILES: CCOC(=O)c1cc([Se]c2ccc(F)cc2)c2cc(OC)ccc2n1
- Activity [1]: Active
- EC50 [4]: 134 µM
- Activity [5]: Active
- EC50 [6]: > 150 µM

SMILES: CCOC(=O)c1cc([Se]c2ccccc2)c2cc(Cl)ccc2n1
- Activity [1]: Active
- EC50 [4]: 53 µM
- Activity [5]: Active
- EC50 [6]: 47.1 µM

SMILES: COc1ccc2nc(-c3c(Cl)cccc3Cl)cc([Se]c3ccccc3)c2c1
- Activity [1]: Active
- EC50 [4]: 17 µM
- Activity [5]: Active
- EC50 [6]: > 150 µM

SMILES: CCOC(=O)c1cc(C#CCCO)c2cc(OC)ccc2n1
- Activity [1]: Active
- EC50 [4]: 123 µM
- Activity [5]: Active
- EC50 [6]: > 150 µM

SMILES: CCOC(=O)c1cc(C#Cc2ccccc2[N+](=O)[O-])c2cc(OC)ccc2n1
- Activity [1]: Active
- EC50 [4]: 54.7 µM
- Activity [5]: Active
- EC50 [6]: > 150 µM

SMILES: CCOC(=O)c1cc([Se]c2ccccc2)c2cc(C)ccc2n1
- Activity [8]: Active
- IC50 [9]: Not Active
- Activity [10]: inactive
- Activity [11]: Active
- Activity [12]: inactive
- Activity [13]: inactive
- IC50 [14]: Not Active
- Activity [15]: Active
- Activity [16]: inactive
- Activity [17]: inactive
- Activity [18]: inactive
- Activity [19]: Active
- Activity [20]: inactive
- Activity [21]: Active
- Activity [22]: Active
- Activity [1]: Active
- Activity [23]: Active
- Activity [24]: inactive
- Activity [25]: inactive
- Activity [26]: Active
- Activity [27]: inactive
- Activity [28]: Active
- Activity [29]: inactive
- Activity [30]: inactive
- Activity [31]: Active
- Activity [32]: Active
- Activity [33]: Active
- EC50 [4]: 15.3 µM
- Activity [5]: Active
- EC50 [6]: 12 µM

SMILES: CCOC(=O)c1cc(C#Cc2ccc(N)cc2)c2cc(OC)ccc2n1
- Activity [1]: Active
- EC50 [4]: 61 µM
- Activity [5]: Active
- EC50 [6]: 8.8 µM

SMILES: COc1ccc([Se]c2cc(-c3ccc(O)cc3)nc3ccc(OC)cc23)cc1
- Ki [34]: 18.3 µM
- alphaKi [35]: 18.4 µM
- Activity [1]: Active
- alphaKi [36]: 18.6 µM
- Ki [37]: 18.5 µM
- IC50 [2]: 12.4 µM
- Ki [38]: 21.7 µM
- alphaKi [39]: 22.1 µM
- IC50 [3]: 3.6 µM
- EC50 [4]: 41.5 µM
- Activity [5]: Active
- EC50 [6]: 59.2 µM
- IC50 [7]: 5.78 µM
